Literature values, collected in US6379705B1, “Stable multi-unitary pharmaceutical preparations containing substituted benzimidazoles” (Laboratorio Mendifar-Produtos Farmaceuticos, S.A., priority 1999, dated 2002).

For `COc1ccc2[nH]c([S+]([O-])Cc3ncc(C)c(OC)c3C)nc2c1` (centres unmarked) [omeprazole], the “pH of maximum stability of solutions” value (omeprazole solutions) is given as 11 and the degradation in solution (pHs lower than 7.8) is given as “very quickly”.
